In US11691965B2, “Method for preparing pyrrolidinyl urea derivative” (ZHANGZHOU PIEN TZE HUANG PHARMACEUTICAL CO., LTD., priority 2020, dated 2023):

Legend:
TrkA = TrkA (Homo sapiens (Human), UniProt P04629); assay: TrkA enzyme activity test; format: biochemical
Description: Experimental Example 1: TrkA Enzyme Activity Test
TK detection kit Cisbio-62TK0PEJ
Detection plate PerkinElmer-6007299
Envision PerkinElmer-2104
20 mM Hepes (pH 7.5), 10 mM MgCl2 (magnesium chloride), 1 mM EGTA, 0.01% Brij35, 0.1 mM Orthovanadate (sodium vanadate), 0.02 g/mL BSA (bovine serum protein), 2 mM DTT (dithiothreitol), 1% DMSO
This experiment was performed using Cisbio's homogeneous time-resolved fluorescence conjugate energy transfer (HTRF® method) for activity detection. In the detection plate, enzyme, biotin-labeled peptide substrate, ATP and detection compound were mixed and incubated for reaction. […] The data were represented by fluorescence signal readings at 665 nm and 620 nm respectively, with a high ratio of 665 nm/620 nm indicating high activity and a low ratio of 665 nm/620 nm indicating inhibition of activity. […]
In a 10 μL reaction system with a buffer of 20 mM Hepes (pH 7.5), 10 mM MgCl2, 1 mM EGTA, 0.01% Brij35, 0.1 mM sodium vanadate, 0.02 g/mL BSA, 2 mM DTT, 1% DMSO medium, containing 15 nM TrkA kinase, 0.3 μM biotin-TK peptide (biotin-labeled tyrosine kinase substrate polypeptide), 100 μM ATP were incubated at 23° C. for 120 minutes. […]

CYP1A2 = CYP1A2 (Homo sapiens (Human), UniProt P05177); format: in vitro ADME; details: microsomes, 10 min
CYP1A2, sequence (P05177 whole entry, canonical isoform): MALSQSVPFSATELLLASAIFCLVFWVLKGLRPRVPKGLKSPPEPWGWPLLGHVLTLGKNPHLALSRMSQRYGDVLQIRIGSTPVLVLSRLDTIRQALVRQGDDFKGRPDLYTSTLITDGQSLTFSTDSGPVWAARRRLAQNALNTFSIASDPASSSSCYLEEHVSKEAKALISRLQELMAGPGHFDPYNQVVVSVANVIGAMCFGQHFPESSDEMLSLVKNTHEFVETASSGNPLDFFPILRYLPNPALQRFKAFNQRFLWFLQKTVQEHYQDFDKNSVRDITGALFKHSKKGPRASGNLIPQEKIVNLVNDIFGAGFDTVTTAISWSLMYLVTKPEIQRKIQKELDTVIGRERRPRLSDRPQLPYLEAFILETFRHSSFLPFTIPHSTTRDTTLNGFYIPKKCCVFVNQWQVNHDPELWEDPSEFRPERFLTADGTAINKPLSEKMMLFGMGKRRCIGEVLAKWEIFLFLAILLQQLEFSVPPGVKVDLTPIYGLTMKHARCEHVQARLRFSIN
Description: (§1) Experimental Example 2: Cytochrome P450 Isoenzyme Inhibitory Activity Test The inhibitory activities of test compound against different isoforms of human cytochrome P450 isoenzymes were determined. The test compound, standard inhibitor (100×final concentration) and mixed substrate working solution were prepared; the microsome frozen in −80° C. refrigerator was taken out and thawed. […]

CYP2C19 = CYP2C19 (Homo sapiens (Human), UniProt P33261); assay: Cytochrome P450 isoenzyme inhibitory activity test (human liver microsomes); format: in vitro ADME; details: heading: Cytochrome P450 isoenzyme IC50 CYP2C19, 37° C., 10 minutes
CYP2C19, sequence (P33261 whole entry, canonical isoform): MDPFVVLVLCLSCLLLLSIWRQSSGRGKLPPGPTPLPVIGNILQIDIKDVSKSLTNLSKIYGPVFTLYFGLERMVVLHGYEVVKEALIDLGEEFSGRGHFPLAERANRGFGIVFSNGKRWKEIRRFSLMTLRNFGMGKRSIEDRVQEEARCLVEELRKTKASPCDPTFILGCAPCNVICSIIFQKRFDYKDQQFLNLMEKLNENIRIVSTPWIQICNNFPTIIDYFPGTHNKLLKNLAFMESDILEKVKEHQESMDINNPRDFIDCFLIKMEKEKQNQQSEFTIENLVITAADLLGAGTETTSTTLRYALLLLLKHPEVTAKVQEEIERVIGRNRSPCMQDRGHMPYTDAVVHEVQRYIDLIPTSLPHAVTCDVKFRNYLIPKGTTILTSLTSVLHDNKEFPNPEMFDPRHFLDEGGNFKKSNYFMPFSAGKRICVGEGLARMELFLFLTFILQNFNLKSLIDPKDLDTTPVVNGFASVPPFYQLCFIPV
Description: (§2) Experimental Example 2: Cytochrome P450 Isoenzyme Inhibitory Activity Test The inhibitory activities of test compound against different isoforms of human cytochrome P450 isoenzymes were determined. The test compound, standard inhibitor (100×final concentration) and mixed substrate working solution were prepared; the microsome frozen in −80° C. refrigerator was taken out and thawed. 2 μL of the compound to be tested and standard inhibitor solution were added to the corresponding wells, and at the same time, 2 μL of the corresponding solvent was added to the non-inhibitor control wells (NIC) and the blank control wells; secondly, 20 μL of mixed substrate solution was added to the corresponding wells except the blank wells (20 μL of Pb was added to the blank wells); human liver microsome solution was prepared (the solution was put back in the refrigerator immediately after using and marking the date), and then 158 μL of human liver microsome solution was added to all wells; the sample plate was put in a 37° C. water bath for pre-incubation, and then a coenzyme factor (NADPH) solution was prepared; after 10 minutes, 20 μL of NADPH solution was added to all wells, the sample plate was shaken well, and incubated in a 37° C. water bath for 10 minutes; at the corresponding time point, 400 μL of cold acetonitrile solution (internal standard is 200 ng/mL tolbutamide and labetalol) was added to terminate the reaction; after the plates were evenly mixed, the mixture was centrifuged at 4000 rpm for 20 minutes to precipitate protein; 200 μL of supernatant was added into 100 μL of water, shaken well and detected by LC/MS/MS.

CYP2C9 = CYP2C9 (Homo sapiens (Human), UniProt P11712); assay: as above; format: in vitro ADME; details: heading: Cytochrome P450 isoenzyme IC50 CYP2C9, 37° C., 10 minutes
CYP2C9, sequence (P11712 whole entry): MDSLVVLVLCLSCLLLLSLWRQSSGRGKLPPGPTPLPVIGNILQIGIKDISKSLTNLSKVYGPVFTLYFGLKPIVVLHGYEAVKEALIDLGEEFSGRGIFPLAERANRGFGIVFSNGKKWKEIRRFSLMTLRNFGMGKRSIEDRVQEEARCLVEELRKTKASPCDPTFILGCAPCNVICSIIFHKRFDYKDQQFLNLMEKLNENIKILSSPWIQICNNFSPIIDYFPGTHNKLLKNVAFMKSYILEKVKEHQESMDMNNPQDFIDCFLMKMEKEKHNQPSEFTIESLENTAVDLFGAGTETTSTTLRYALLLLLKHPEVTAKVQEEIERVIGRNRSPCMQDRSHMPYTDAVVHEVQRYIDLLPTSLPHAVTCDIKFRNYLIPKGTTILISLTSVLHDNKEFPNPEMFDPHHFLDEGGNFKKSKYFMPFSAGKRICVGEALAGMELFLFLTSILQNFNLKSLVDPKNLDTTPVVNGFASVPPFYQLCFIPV
Description: as §2

CYP2D6 = CYP2D6 (Homo sapiens (Human), UniProt P10635); assay: as above; format: in vitro ADME; details: heading: Cytochrome P450 isoenzyme IC50 CYP2D6, 37° C., 10 minutes
CYP2D6, sequence (P10635 whole entry): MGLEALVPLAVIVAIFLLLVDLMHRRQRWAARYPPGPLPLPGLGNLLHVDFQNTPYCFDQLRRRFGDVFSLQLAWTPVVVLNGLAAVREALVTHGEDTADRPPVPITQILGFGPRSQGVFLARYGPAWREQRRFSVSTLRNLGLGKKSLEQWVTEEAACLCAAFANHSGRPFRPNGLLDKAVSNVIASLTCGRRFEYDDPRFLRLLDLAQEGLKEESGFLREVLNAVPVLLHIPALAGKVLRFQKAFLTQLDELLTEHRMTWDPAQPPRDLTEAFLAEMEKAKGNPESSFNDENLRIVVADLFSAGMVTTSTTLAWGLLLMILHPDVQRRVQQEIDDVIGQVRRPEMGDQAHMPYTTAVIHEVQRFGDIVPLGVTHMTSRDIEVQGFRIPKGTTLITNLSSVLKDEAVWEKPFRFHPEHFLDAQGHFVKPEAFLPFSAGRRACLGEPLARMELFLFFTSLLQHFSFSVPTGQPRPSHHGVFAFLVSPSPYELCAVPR
Description: as §2

CYP3A4 = CYP3A4 (Homo sapiens (Human), UniProt P08684); assay: as above; format: in vitro ADME; details: heading: Cytochrome P450 isoenzyme IC50 CYP3A4, 37° C., 10 minutes
CYP3A4, sequence (P08684 whole entry): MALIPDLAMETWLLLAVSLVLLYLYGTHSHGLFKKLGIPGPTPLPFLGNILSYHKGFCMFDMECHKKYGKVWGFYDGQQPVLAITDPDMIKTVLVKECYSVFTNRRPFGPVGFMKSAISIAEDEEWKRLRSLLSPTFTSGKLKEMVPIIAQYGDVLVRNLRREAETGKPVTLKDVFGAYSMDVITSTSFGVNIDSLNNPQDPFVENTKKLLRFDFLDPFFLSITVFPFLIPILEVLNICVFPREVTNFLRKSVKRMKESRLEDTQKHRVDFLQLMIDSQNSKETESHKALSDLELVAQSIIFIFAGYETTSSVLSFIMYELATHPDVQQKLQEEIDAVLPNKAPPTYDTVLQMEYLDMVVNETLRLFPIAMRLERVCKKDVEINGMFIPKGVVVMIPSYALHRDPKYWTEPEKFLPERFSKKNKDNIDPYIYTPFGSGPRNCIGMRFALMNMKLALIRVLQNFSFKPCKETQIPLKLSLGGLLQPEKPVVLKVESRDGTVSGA
Description: as §2

[1] = In vivo pharmacokinetics study after single administration in rats; set-up: species or system Sprague Dawley rats
Description: Experimental Example 3: In Vivo Pharmacokinetics Study after Single Administration in Rats
Male SD rats were used as the test animals, and the plasma concentrations of the compound were determined after a single administration and the pharmacokinetic behavior was evaluated.
Sprague Dawley rats (male, 200 to 300 g, 7 to 9 weeks old, Shanghai Charles River Laboratory Animal Co., LTD.)
Standard protocols were used to test the pharmacokinetic characteristics of the tested compounds in rodents after intravenous injection and oral administration, in the experiment, the tested compounds were prepared into a clear solution or a homogeneous suspension, and the rats were given a single intravenous injection and oral administration. In the intravenous injection group, the solvent was a certain proportion of ethanol and normal saline solution or a certain proportion of HP-β cyclodextrin solution of dimethyl sulfoxide (the pH was adjusted 3 to 4), the mixture was vortex-stirred to prepare 1 mg/mL clear solution and filtered by a microporous membrane for later use; oral solvent was a certain proportion of sodium carboxymethyl cellulose solution or a certain proportion of HP-β cyclodextrin solution of dimethyl sulfoxide (the pH was adjusted to above 4), after the compound to be tested was mixed with the solvent, the mixture was vortex-stirred to obtain a uniform suspension of 30 mg/mL for later use.
(§3) C0 is the initial concentration, T1/2 is the elimination half-life, Vdss is the steady-state apparent volume of distribution, Cl is the total clearance, and AUC0-inf is area under the plasma drug concentration-time curve from 0 time to extrapolation to infinity area, Cmax is the peak concentration, and Tmax is the peak time.

[2] = In vivo pharmacokinetics study after single administration in Beagle dogs
Description: Experimental Example 4: In Vivo Pharmacokinetics Study after Single Administration in Beagle Dogs
Male Beagle dogs were used as the test animals, and the plasma concentrations of the compounds were determined after a single administration and the pharmacokinetic behavior was evaluated.
Beagle (male, 6 to 12 kg, more than 6 months old, Beijing Mars Biotechnology Co., Ltd.)
The purpose of the experiment was to test the pharmacokinetic characteristics of the tested compounds in non-rodents after intravenous injection and oral administration, in the experiment, the tested compounds were prepared into a clear solution or a homogeneous suspension, and the beagle dogs were given a single intravenous injection or oral administration. In the intravenous injection group, the solvent was a certain proportion of HP-β-cyclodextrin solution of dimethyl sulfoxide or a certain proportion of ethanol, and a normal saline solution of polyethylene glycol 400, vortexed and ultrasonicated to prepare a […] clear solution and filtered by microporous membrane for later use; oral solvent was a certain proportion of HP-β cyclodextrin solution of dimethyl sulfoxide or a certain proportion of sodium carboxymethyl cellulose solution, after the compound to be tested was mixed with the solvent, the solvent was vortexed and ultrasonicated to prepare a 3 mg/mL uniform suspension for later use.
as §3

[3] = system: human cytochrome P450 isoenzymes; assay: Cytochrome P450 isoenzyme inhibitory activity test, overall conclusion; format: in vitro ADME; details: human liver microsomes
Description: as §1

[4] = Sprague Dawley, rat, plasma, 2 mg/kg, male rats, 2 mpk intravenous injection
[5] = Sprague Dawley, rat, plasma, 300 mg/kg, male rats, 300 mpk oral
[6] = dog, plasma, 2 mg/kg, male Beagle dogs, 2 mpk intravenous injection
[7] = dog, plasma, 15 mg/kg, male Beagle dogs, 15 mpk oral

TrkA, sequence (P04629 440-796): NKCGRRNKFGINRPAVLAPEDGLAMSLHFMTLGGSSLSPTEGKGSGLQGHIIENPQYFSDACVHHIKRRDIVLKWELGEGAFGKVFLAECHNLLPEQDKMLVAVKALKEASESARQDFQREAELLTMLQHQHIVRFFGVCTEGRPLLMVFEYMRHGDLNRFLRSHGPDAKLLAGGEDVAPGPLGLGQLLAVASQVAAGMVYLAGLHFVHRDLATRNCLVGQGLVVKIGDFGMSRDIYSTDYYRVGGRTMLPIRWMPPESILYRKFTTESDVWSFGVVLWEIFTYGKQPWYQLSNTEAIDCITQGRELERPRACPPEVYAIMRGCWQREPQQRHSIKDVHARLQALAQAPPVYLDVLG

inhibitory effect on TrkA enzyme (in words) (TrkA): significant inhibitory effect | IC50 (TrkA; 15 nM TrkA kinase, 100 μM ATP, 23° C., 120 minutes, read-out: Trk AIC50): 0.00664 µM | IC50 (CYP1A2): > 0.05 µM | IC50 (CYP2C19): > 50 µM | IC50 (CYP2C9): 43.6 µM | IC50 (CYP2D6): 31.7 µM | IC50 (CYP3A4): > 50 µM | AUC(0-inf) [1, 4]: 1970 ng·h/mL | C0 [1, 4]: 3620 ng/mL | clearance [1, 4]: 17.1 mL/min/kg | half-life [1, 4]: 0.61 h | Vd ([1]; Sprague Dawley, rat, plasma, 2 mg/kg, male rats, 2 mpk intravenous injection, read-out: Vdss): 0.7 L/kg | AUC(0-inf) [1, 5]: 210000 ng·h/mL | Cmax [1, 5]: 47600 ng/mL | Tmax [1, 5]: 1.5 h | bioavailability [1, 5]: 71.1% | half-life [1, 5]: 1.7 h | AUC(0-inf) [2, 6]: 1840 ng·h/mL | C0 [2, 6]: 3940 ng/mL | clearance [2, 6]: 18.4 mL/min/kg | half-life [2, 6]: 0.72 h | Vd ([2]; dog, plasma, 2 mg/kg, male Beagle dogs, 2 mpk intravenous injection, read-out: Vdss): 0.71 L/kg | AUC(0-inf) [2, 7]: 12600 ng·h/mL | Cmax [2, 7]: 4560 ng/mL | Tmax [2, 7]: 1 h | bioavailability [2, 7]: 91.3% | half-life [2, 7]: 1.2 h | risk of drug-drug interaction (in words) [3]: lower risk of drug-drug interaction
SMILES: COCCN1C[C@@H](n2ccc(F)c2)[C@H](NC(=O)Nc2c(C)c(-c3cnc(C4(F)COC4)nc3)nn2-c2ccccc2)C1 [Compounds of formula (1)]
pharmacokinetic properties and oral bioavailability (in words) ([1]; rats): good pharmacokinetic properties and oral bioavailability | pharmacokinetic properties and oral bioavailability (in words) ([2]; beagle dogs): good pharmacokinetic properties and oral bioavailability
